In the supplement of paper PMC10883282:

Legend:
Assay in all cases: relative viability vs DMSO control (72 h) (fraction); higher = more viable cells
SW872 = test system: SW872
In short: (§1)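 Serially diluted compound, 2.5 µl from source plates spanning 10 mM to 0.0002 mM, was added 24 h after sarcoma cell lines were seeded in 384-well plates at densities targeting 80–90% confluence. Plates then sat 72 h at 37 °C, 5% CO2, with 0.1% DMSO vehicle and a 5 µM positive control. Relative viability came from ATPLite as percent growth, averaged over up to triplicate wells, and was rescaled with 1 as full and 0 as none.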

VA-ES-BJ = test system: VA-ES-BJ
In short: as §1

G401 = test system: G401
In short: as §1

KHOS-NP = test system: KHOS-NP
In short: as §1

SK-LMS-1 = test system: SK-LMS-1
In short: as §1

SW684 = test system: SW684
In short: as §1

SW982 = test system: SW982
In short: as §1

RD-ES = test system: RD-ES
In short: as §1

A204 = test system: A204
In short: as §1

SK-ES-1 = test system: SK-ES-1
In short: as §1

HS729 = test system: HS729
In short: as §1

HT1080 = test system: HT1080
In short: as §1

COC(=O)N[C@@H](C)CNc1nccc(-c2cn(C(C)C)nc2-c2cc(Cl)cc(NS(C)(=O)=O)c2F)n1 [Encorafenib]
Settings	relative viability
A204, 0.00017 µM	0.99
A204, 0.00051 µM	0.991
A204, 0.00152 µM	1
A204, 0.00457 µM	0.982
A204, 0.01372 µM	0.973
A204, 0.04115 µM	0.988
A204, 0.1235 µM	1
A204, 0.3704 µM	0.96
A204, 1.111 µM	0.838
A204, 3.333 µM	0.602
A204, 10 µM	0.574
G401, 0.00017 µM	0.975
G401, 0.00051 µM	1.01
G401, 0.00152 µM	0.9948
G401, 0.00457 µM	1.01
G401, 0.01372 µM	1.02
G401, 0.04115 µM	1.06
G401, 0.1235 µM	1.04
G401, 0.3704 µM	1.01
G401, 1.111 µM	0.841
G401, 3.333 µM	0.653
G401, 10 µM	0.5834
HS729, 0.00017 µM	1.069
HS729, 0.00051 µM	1.077
HS729, 0.00152 µM	1.07
HS729, 0.00457 µM	0.993
HS729, 0.01372 µM	0.994
HS729, 0.04115 µM	0.995
HS729, 0.1235 µM	1.04
HS729, 0.3704 µM	0.975
HS729, 1.111 µM	0.821
HS729, 3.333 µM	0.69
HS729, 10 µM	0.719
HT1080, 0.00017 µM	1.06
HT1080, 0.00051 µM	1.09
HT1080, 0.00152 µM	1.07
HT1080, 0.00457 µM	1.08
HT1080, 0.01372 µM	1.09
HT1080, 0.04115 µM	1.08
HT1080, 0.1235 µM	1.06
HT1080, 0.3704 µM	1.08
HT1080, 1.111 µM	0.885
HT1080, 3.333 µM	0.715
HT1080, 10 µM	0.765
KHOS-NP, 0.00017 µM	1.01
KHOS-NP, 0.00051 µM	1.01
KHOS-NP, 0.00152 µM	1.03
KHOS-NP, 0.00457 µM	1.02
KHOS-NP, 0.01372 µM	1.01
KHOS-NP, 0.04115 µM	0.99
KHOS-NP, 0.1235 µM	1.03
KHOS-NP, 0.3704 µM	0.984
KHOS-NP, 1.111 µM	0.851
KHOS-NP, 3.333 µM	0.528
KHOS-NP, 10 µM	0.435
RD-ES, 0.00017 µM	0.93
RD-ES, 0.00051 µM	0.95
RD-ES, 0.00152 µM	0.973
RD-ES, 0.00457 µM	0.956
RD-ES, 0.01372 µM	0.935
RD-ES, 0.04115 µM	0.94
RD-ES, 0.1235 µM	0.905
RD-ES, 0.3704 µM	0.91
RD-ES, 1.111 µM	0.707
RD-ES, 3.333 µM	0.462
RD-ES, 10 µM	0.565
SK-ES-1, 0.00017 µM	0.928
SK-ES-1, 0.00051 µM	0.948
SK-ES-1, 0.00152 µM	0.972
SK-ES-1, 0.00457 µM	0.979
SK-ES-1, 0.01372 µM	0.956
SK-ES-1, 0.04115 µM	1.02
SK-ES-1, 0.1235 µM	0.982
SK-ES-1, 0.3704 µM	0.813
SK-ES-1, 1.111 µM	0.5375
SK-ES-1, 3.333 µM	0.308
SK-ES-1, 10 µM	0.394
SK-LMS-1, 0.00017 µM	1.01
SK-LMS-1, 0.00051 µM	1.02
SK-LMS-1, 0.00152 µM	0.9804
SK-LMS-1, 0.00457 µM	1.017
SK-LMS-1, 0.01372 µM	0.953
SK-LMS-1, 0.04115 µM	0.933
SK-LMS-1, 0.1235 µM	0.9782
SK-LMS-1, 0.3704 µM	0.894
SK-LMS-1, 1.111 µM	0.7389
SK-LMS-1, 3.333 µM	0.49
SK-LMS-1, 10 µM	0.441
SW684, 0.00017 µM	0.979
SW684, 0.00051 µM	1
SW684, 0.00152 µM	1.04
SW684, 0.00457 µM	1.04
SW684, 0.01372 µM	1.04
SW684, 0.04115 µM	1.04
SW684, 0.1235 µM	1.05
SW684, 0.3704 µM	1.01
SW684, 1.111 µM	0.943
SW684, 3.333 µM	0.824
SW684, 10 µM	0.834
SW872, 0.00017 µM	0.96
SW872, 0.00051 µM	0.952
SW872, 0.00152 µM	0.96
SW872, 0.00457 µM	0.902
SW872, 0.01372 µM	0.729
SW872, 0.04115 µM	0.599
SW872, 0.1235 µM	0.555
SW872, 0.3704 µM	0.524
SW872, 1.111 µM	0.459
SW872, 3.333 µM	0.335
SW872, 10 µM	0.295
SW982, 0.00017 µM	0.94
SW982, 0.00051 µM	0.946
SW982, 0.00152 µM	0.887
SW982, 0.00457 µM	0.877
SW982, 0.01372 µM	0.853
SW982, 0.04115 µM	0.828
SW982, 0.1235 µM	0.798
SW982, 0.3704 µM	0.704
SW982, 1.111 µM	0.489
SW982, 3.333 µM	0.327
SW982, 10 µM	0.308
VA-ES-BJ, 0.00017 µM	1.02
VA-ES-BJ, 0.00051 µM	1.04
VA-ES-BJ, 0.00152 µM	1.04
VA-ES-BJ, 0.00457 µM	1.03
VA-ES-BJ, 0.01372 µM	1.03
VA-ES-BJ, 0.04115 µM	1.03
VA-ES-BJ, 0.1235 µM	1
VA-ES-BJ, 0.3704 µM	0.989
VA-ES-BJ, 1.111 µM	0.852
VA-ES-BJ, 3.333 µM	0.637
VA-ES-BJ, 10 µM	0.659
